Experimental data from patent publication US20140275122A1, “Voriconazole Formulations” (Fresenius Kabi USA, LLC, priority 2013, published 2014).

Columns and labels:
[1] = Storage stability of lyophilized voriconazole compositions, total impurities by HPLC after reconstitution; type: physicochemical
Procedure: Lyophilized compositions were formed by dissolving the excipient (SBECD or HPCD) in water and adjusting the pH of the resulting excipient solution. Voriconazole (200 mg) was added to the excipient solution, and the pH of the resulting lyophilization solution was adjusted as necessary. The lyophilization solutions were then filtered and lyophilized to form solid compositions. The lyophilization procedure was adjusted as need for each type of composition; however, the general procedure included reducing the temperature of the lyophilization solutions to −45° C., performing a primary drying at a temperature of from −35 to −15° C. and under a vacuum of from 50-200 milliTorr (mTorr), and performing a secondary drying at a temperature of 40° C. To ensure the lowest initial impurities possible, the solutions for lyophilization were prepared at low temperature, using a nitrogen blanket and purging.
Each composition was sealed in a 5 mL vial with a 13 mm rubber stopper (STELMI 6720GC; American Stelmi Corporation, Princeton, N.J.) and stored at 25° C., 40° C. or 55° C. (all temperatures ±2° C.). After storage for 4 or 8 weeks at 25° C., for 4, 8 or 12 weeks at 40° C., or for 2 or 4 weeks at 55° C., a portion of the vials were reconstituted with 19 mL of water for injection. The reconstituted liquids were analyzed by HPLC to determine the concentrations of voriconazole and of any impurities. For comparison, a portion of each composition was reconstituted at the beginning of the storage time (time=0 weeks) with 19 mL of water for injection, and analyzed by HPLC for voriconazole and impurity concentrations.
Solutions comprising HPCD and voriconazole were prepared as described in Example 1, except that the pH of the solution prior to lyophilization was adjusted to 5.18, 5.5, 6.0, 6.5, or 7.0. The lyophilized compositions were formed and then analyzed for the stability of voriconazole over time at 40° C. or 55° C., as described above with regard to Table 1. Table 2 lists the results of stability analyses of lyophilized compositions containing voriconazole in combination with HPCD, where the compositions had different pH values prior to lyophilization.
The lyophilized compositions were formed and then analyzed for voriconazole stability over time at 40° C. and 55° C., as described above with regard to Table 1. Table 3 lists the results of stability analyses of lyophilized compositions containing voriconazole in combination with HPCD, where the compositions further included one of the amino acids arginine, aspartic acid or glycine.
The lyophilized compositions were formed and then analyzed for voriconazole stability over time at 40° C. and 55° C., as described above with regard to Table 3. Table 4 lists the results of stability analyses of lyophilized compositions containing voriconazole in combination with HPCD, where the compositions further included one of the amino acids lysine, histidine, asparagine, glutamine or threonine.
The effects of pH prior to lyophilization were analyzed for the formulations that included lactose. The lyophilized compositions were formed and then analyzed for voriconazole stability over time at 40° C. and 55° C., as described above with regard to Table 3. […]
The pH prior to lyophilization was adjusted to 6.2 with HCl/NaOH. The lyophilized compositions were formed and then analyzed for voriconazole stability over time at 40° C. and 55° C., as described above with regard to Table 3. […]

[2] = aqueous liquid having a pH of 3; cited from earlier work

**Q.** With C[C@@H](c1ncncc1F)[C@](O)(Cn1cncn1)c1ccc(F)cc1F [voriconazole, (2R,3S)-2-(2,4-difluorophenyl)-3-(5-fluoro-4-pyrimidinyl)-1-(1H-1,2,4-triazol-1-yl)-2-butanol] as the compound, how does the “Total impurities (%)” value ([1]; lyophilized solid stored at 40 °C, 4 weeks) read?
**A.** 0.70%

**Q.** And the “Total impurities (%)” value ([1]; lyophilized solid stored at 40 °C, 8 weeks)?
**A.** 0.34%

**Q.** What about the “Total impurities (%)” value ([1]; lyophilized solid stored at 40 °C, 12 weeks) of the same compound?
**A.** 0.43%

**Q.** And the “Total impurities (%)” value ([1]; lyophilized solid stored at 55 °C, 2 weeks)?
**A.** 0.58%

**Q.** What about the “Total impurities (%)” value ([1]; lyophilized solid, time 0 weeks (reconstituted at beginning of storage)) of the same compound?
**A.** 0.18%

**Q.** And the solubility of voriconazole [2]?
**A.** 2000 µg/mL
